# Assay results reported in patent publication USRE47221E1, “Tricyclic compounds” (AbbVie Inc., priority 2009, dated 2019).
# Biological target: T1, Jak3 (Homo sapiens, UniProt P52333)
# T1 construct: Jak3 enzyme (aa 811-1103); expressed in SF9 cells as a GST fusion; GST; made in house; host or cells: SF9 insect cells
# Experiment: Jak3 enzyme data for selected compounds
# Assay type: biochemical
# T1 sequence (P52333 811-1103): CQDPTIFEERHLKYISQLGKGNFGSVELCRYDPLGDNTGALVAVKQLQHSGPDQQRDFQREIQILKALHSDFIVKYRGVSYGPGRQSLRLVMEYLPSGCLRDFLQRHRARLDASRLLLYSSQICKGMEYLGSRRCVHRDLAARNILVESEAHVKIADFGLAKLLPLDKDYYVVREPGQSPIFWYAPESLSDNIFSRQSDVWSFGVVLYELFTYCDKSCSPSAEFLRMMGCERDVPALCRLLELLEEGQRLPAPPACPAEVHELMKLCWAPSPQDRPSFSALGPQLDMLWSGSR
row,Compound,IC50 [µM]
1,"CC[C@@H]1C[C@H](NS(=O)(=O)N2CC(F)(F)C2)C[C@@H]1c1cnc2cnc3[nH]ccc3n12 (single isomer, unassigned) [AA.1.79, N-(3-ethyl-4-(3H-imidazo[1,2-a]pyrrolo[2,3-e]pyrazin-8-yl)cyclopentyl)-3,3-difluoroazetidine-1-sulfonamide]",< 0.1
2,"CC[C@@H]1C[C@H](OCC2CC2)C[C@@H]1c1nnc2cnc3[nH]ccc3n12 (single isomer, unassigned) [AA.1.80, 1-(4-(cyclopropylmethoxy)-2-ethylcyclopentyl)-6H-pyrrolo[2,3-e][1,2,4]triazolo[4,3-a]pyrazine]",> 1
3,"C[C@@H]1C[C@H](NS(=O)(=O)NCCO)C[C@@H]1c1cnc2cnc3[nH]ccc3n12 (single isomer, unassigned) [AA.1.81]",< 0.1
4,"CC[C@@H]1C[C@@H](OCC2CC2)C[C@@H]1c1nnc2cnc3[nH]ccc3n12 (single isomer, unassigned) [AA.1.90, 1-(4-(cyclopropylmethoxy)-2-ethylcyclopentyl)-6H-pyrrolo[2,3-e][1,2,4]triazolo[4,3-a]pyrazine]",0.1 to 1
5,"CC[C@@H]1C[C@@H](OC2CCOCC2)C[C@@H]1c1nnc2cnc3[nH]ccc3n12 (single isomer, unassigned) [AA.1.91, 1-(2-ethyl-4-(tetrahydro-2H-pyran-4-yloxy)cyclopentyl)-6H-pyrrolo[2,3-e][1,2,4]triazolo[4,3-a]pyrazine]",0.1 to 1
6,"CC[C@@H]1C[C@H](NS(=O)(=O)c2ccc(F)c(Cl)c2)C[C@@H]1c1cnc2cnc3[nH]ccc3n12 (single isomer, unassigned) [AA.1.92, 3-chloro-N-(3-ethyl-4-(3H-imidazo[1,2-a]pyrrolo[2,3-e]pyrazin-8-yl)cyclopentyl)-4-fluorobenzenesulfonamide]",< 0.1
7,"C[C@H]1C[C@H](Oc2ccc(C#N)cc2)C[C@H]1c1nnc2cnc3[nH]ccc3n12 (single isomer, unassigned) [AA.1.93, 4-(3-methyl-4-(6H-pyrrolo[2,3-e][1,2,4]triazolo[4,3-a]pyrazin-1-yl)cyclopentyloxy)benzonitril]",> 1
8,"C[C@H]1C[C@H](Oc2ccc(C#N)cc2)C[C@@H]1c1nnc2cnc3[nH]ccc3n12 (single isomer, unassigned) [AA.1.94, 4-(3-methyl-4-(6H-pyrrolo[2,3-e][1,2,4]triazolo[4,3-a]pyrazin-1-yl)cyclopentyloxy)benzonitrile]",0.1 to 1
9,"CC[C@@H]1C[C@@H](Oc2ccc(C(F)(F)F)cn2)C[C@@H]1c1nnc2cnc3[nH]ccc3n12 (single isomer, unassigned) [AA.1.95, 1-(2-ethyl-4-(5-(trifluoromethyl)pyridin-2-yloxy)cyclopentyl)-6H-pyrrolo[2,3-e][1,2,4]triazolo[4,3-a]pyrazine]",> 1
10,"CC[C@H]1C[C@H](Oc2ccc(C(F)(F)F)cn2)C[C@H]1c1nnc2cnc3[nH]ccc3n12 (single isomer, unassigned) [AA.1.96, 1-(2-ethyl-4-(5-(trifluoromethyl)pyridin-2-yloxy)cyclopentyl)-6H-pyrrolo[2,3-e][1,2,4]triazolo[4,3-a]pyrazine]",> 1
11,"CC[C@H]1C[C@@H](Oc2cnc(C#N)cn2)C[C@@H]1c1nnc2cnc3[nH]ccc3n12 (single isomer, unassigned) [AA.1.97, 5-(3-ethyl-4-(6H-pyrrolo[2,3-e][1,2,4]triazolo[4,3-a]pyrazin-1-yl)cyclopentyloxy)pyrazine-2-carbonitrile]",> 1
12,"CC[C@@H]1C[C@H](Oc2cnc(C#N)cn2)C[C@H]1c1nnc2cnc3[nH]ccc3n12 (single isomer, unassigned) [AA.1.98, 5-(3-ethyl-4-(6H-pyrrolo[2,3-e][1,2,4]triazolo[4,3-a]pyrazin-1-yl)cyclopentyloxy)pyrazine-2-carbonitrile]",< 0.1
13,"CC[C@@H]1C[C@@H](OCc2cccc(C#N)c2)C[C@@H]1c1nnc2cnc3[nH]ccc3n12 (single isomer, unassigned) [AA.1.99, 3-((3-ethyl-4-(6H-pyrrolo[2,3-e][1,2,4]triazolo[4,3-a]pyrazin-1-yl)cyclopentyloxy)methyl)benzonitrile]",0.1 to 1
14,"CC[C@H]1C[C@H](OCc2cccc(C#N)c2)C[C@H]1c1nnc2cnc3[nH]ccc3n12 (single isomer, unassigned) [AA.1.100, 3-((3-ethyl-4-(6H-pyrrolo[2,3-e][1,2,4]triazolo[4,3-a]pyrazin-1-yl)cyclopentyloxy)methyl)benzonitrile]",> 1
15,"CC[C@@H]1C[C@@H](OCc2ccc(C#N)cc2)C[C@@H]1c1nnc2cnc3[nH]ccc3n12 (single isomer, unassigned) [AA.1.101, 4-((3-ethyl-4-(6H-pyrrolo[2,3-e][1,2,4]triazolo[4,3-a]pyrazin-1-yl)cyclopentyloxy)methyl)benzonitrile]",< 0.1
16,"CC[C@H]1C[C@H](OCc2ccc(C#N)cc2)C[C@H]1c1nnc2cnc3[nH]ccc3n12 (single isomer, unassigned) [AA.1.102, 4-((3-ethyl-4-(6H-pyrrolo[2,3-e][1,2,4]triazolo[4,3-a]pyrazin-1-yl)cyclopentyloxy)methyl)benzonitrile]",> 1
17,"CC[C@@H]1C[C@@H](Oc2ccc(C#N)c(F)c2)C[C@@H]1c1nnc2cnc3[nH]ccc3n12 (single isomer, unassigned) [AA.1.103, 4-(3-ethyl-4-(6H-pyrrolo[2,3-e][1,2,4]triazolo[4,3-a]pyrazin-1-yl)cyclopentyloxy)-2-fluorobenzonitrile]",< 0.1
18,"CC[C@@H]1C[C@@H](Oc2ccc(C#N)cc2F)C[C@@H]1c1nnc2cnc3[nH]ccc3n12 (single isomer, unassigned) [AA.1.104, 4-(3-ethyl-4-(6H-pyrrolo[2,3-e][1,2,4]triazolo[4,3-a]pyrazin-1-yl)cyclopentyloxy)-3-fluorobenzonitrile]",< 0.1
19,"CC[C@@H]1C[C@@H](O)C[C@@H]1c1nnc2cnc3[nH]ccc3n12 (single isomer, unassigned) [AA.1.106, 3-ethyl-4-(6H-pyrrolo[2,3-e][1,2,4]triazolo[4,3-a]pyrazin-1-yl)cyclopentanol]",> 1
20,"CC[C@@H]1C[C@H](NS(=O)(=O)C2CC2)C[C@@H]1n1cnc2cnc3[nH]ccc3c21 (single isomer, unassigned) [Example #23]",< 0.1
21,"C[C@@H]1C[C@H](NS(=O)(=O)C2CC2)C[C@@H]1c1cnc2cnc3[nH]ccc3n12 (single isomer, unassigned) [Example #24]",< 0.1
22,"C[C@@H]1C[C@H](NS(=O)(=O)N2CC(F)(F)C2)C[C@@H]1c1cnc2cnc3[nH]ccc3n12 (single isomer, unassigned) [Example #25]",< 0.1
23,"CC[C@H]1C[C@@H](OCc2ccc(OC)cc2)C[C@@H]1c1n[nH]c2cnc3[nH]ccc3c12 (single isomer, unassigned) [Example #30]",0.1 to 1

row,Compound,IC50 [µM]
1,"CC[C@@H]1C[C@H](OCc2ccc(OC)cc2)C[C@H]1c1n[nH]c2cnc3[nH]ccc3c12 (single isomer, unassigned) [compound 31]",0.1 to 1
2,"O=C(N1CCC[C@@H](c2cnc3cnc4[nH]ccc4n23)C1)N1CCC[C@@H]1C(F)(F)F [AA.1.10, (3-(3H-imidazo[1,2-a]pyrrolo[2,3-e]pyrazin-8-yl)piperidin-1-yl)((R)-2-(trifluoromethyl)pyrrolidin-1-yl)methanone]",0.1 to 1
3,"N#C[C@H]1CCN(C(=O)N2CCC[C@@H](c3ncc4cnc5[nH]ccc5n34)C2)C1 [AA.1.12, 1-((R)-3-(6H-imidazo[1,5-a]pyrrolo[2,3-e]pyrazin-1-yl)piperidine-1-carbonyl)pyrrolidine-3-carbonitrile]",< 0.1
4,CC[C@@H]1C[C@H](NS(=O)(=O)N2CCC2)C[C@@H]1c1nnc2cnc3[nH]ccc3n12 [D.1.10],0.1 to 1
5,CC[C@@H]1C[C@H](NS(=O)(=O)N2CC(F)(F)C2)C[C@@H]1c1nnc2cnc3[nH]ccc3n12 [D.1.11],0.1 to 1
6,CC[C@@H]1C[C@H](NS(=O)(=O)N2CCC[C@H]2C(F)(F)F)CC1c1nnc2cnc3[nH]ccc3n12 (stereo partly shown) [D.1.12],0.1 to 1
7,CC[C@@H]1C[C@H](NS(=O)(=O)N2CCC(F)(F)C2)C[C@@H]1c1nnc2cnc3[nH]ccc3n12 [D.1.13],0.1 to 1
8,CC[C@@H]1C[C@H](N(C)S(=O)(=O)C2CC2)C[C@@H]1c1nnc2cnc3[nH]ccc3n12 [D.1.21],0.1 to 1
9,CC[C@@H]1C[C@H](N(CC2CC2)S(=O)(=O)C2CC2)C[C@@H]1c1nnc2cnc3[nH]ccc3n12 [D.1.22],0.1 to 1
10,CC[C@@H]1C[C@H](NS(=O)(=O)CCC(F)(F)F)C[C@@H]1c1nnc2cnc3[nH]ccc3n12 [D.1.24],0.1 to 1
11,CC[C@@H]1C[C@H](NS(=O)(=O)C2CC2)CN1c1cnc2cnc3[nH]ccc3n12 [D.1.25],< 0.1
12,O=S(=O)(NC12CCC(c3nnc4cnc5[nH]ccc5n34)(CC1)CC2)N1CCC1 [D.1.29],0.1 to 1
13,O=S(=O)(NC12CCC(c3nnc4cnc5[nH]ccc5n34)(CC1)CC2)N1CC(F)(F)C1 [D.1.30],0.1 to 1
14,CC[C@@H]1C[C@H](N(CCO)S(=O)(=O)C2CC2)C[C@@H]1c1nnc2cnc3[nH]ccc3n12 [D.1.31],< 0.1
15,CC1(S(=O)(=O)NC23CCC(c4nnc5cnc6[nH]ccc6n45)(CC2)CC3)CC1 [D.1.33],> 1
16,CC[C@@H]1C[C@H](NS(=O)(=O)C2(C)CC2)C[C@@H]1c1nnc2cnc3[nH]ccc3n12 [D.1.35],< 0.1
17,O=S(=O)(NC12CCC(c3nnc4cnc5[nH]ccc5n34)(CC1)CC2)C1CCC1 [D.1.39],0.1 to 1
18,CC[C@@H]1C[C@H](NS(=O)(=O)C2CC2)C[C@@H]1c1nc(Br)c2cnc3[nH]ccc3n12 [D.1.45],< 0.1
19,CC[C@@H]1C[C@H](NS(=O)(=O)C2CC2)CN1c1ncc2cnc3[nH]ccc3n12 [D.1.46],< 0.1
20,C[C@@H]1C[C@H](NS(=O)(=O)C2CC2)CN1c1ncc2cnc3[nH]ccc3n12 [D.1.47],0.1 to 1
21,N#Cc1ccc(OCC23C4C5C2C2C3C4C52c2ncc3cnc4[nH]ccc4n23)cc1 (stereo not shown) [D.1.49],0.1 to 1
22,CC[C@@H]1C[C@H](NS(=O)(=O)N2CCN(C)CC2)C[C@@H]1c1nnc2cnc3[nH]ccc3n12 [D.1.50],> 1
23,FC(F)(F)c1nc2cnc3[nH]ccc3c2n1C1CCCCC1 [D.1.52],0.1 to 1
